Data as given in EP1290011B1 (Oncopeptides AB, priority 2000, dated 2001).
Where a name gives a salt, the structure may show the parent alone. Read-outs that look alike come from different tables or passages of the source.

Experiments:
Test in all cases: cells
CEM/S = format: cell-based, human
CEM/R = format: cell-based, human
ACHN = format: cell-based, human
H69 = format: cell-based, human
H69AR = format: cell-based, human
8226S = format: cell-based, human
8226Dox40 = format: cell-based, human
8226LR5 = format: cell-based, human
U937gtb = format: cell-based, human
U937vcr = format: cell-based, human
[1] = system: panel of ten human tumour cell lines; format: cell-based; conditions: read-out: MEAN IC50
NCI-H23 = format: cell-based; conditions: Homo sapiens, NCI-H23
U-1752 = format: cell-based
NCI-H611 = format: cell-based
NCI-H157 = format: cell-based; conditions: Homo sapiens, NCI-H157
U-1810 = format: cell-based; conditions: U-1810
NCI-H125 = format: cell-based; conditions: Homo sapiens, NCI-H125
U-1568 = format: cell-based
U1906L = format: cell-based
U1285 = format: cell-based
U-1906E = format: cell-based
U1690 = format: cell-based
[2] = system: hematological fresh human tumour specimens (PHTC); conditions: 72 h, read-out: Tumour cell survival index % Hematological
[3] = system: solid tumour fresh human tumour specimens (PHTC); conditions: 72 h, read-out: Tumour cell survival index % Solid
[4] = CEM/S, 72 hours incubation, read-out: IC50
[5] = CEM/R, 72 hours incubation, read-out: IC50
[6] = ACHN, primary resistant renal carcinoma, 72 hours incubation, read-out: IC50
[7] = H69, small cell lung cancer, 72 hours incubation, read-out: IC50
[8] = H69AR, doxorubicin resistance, 72 hours incubation, read-out: IC50
[9] = 8226S, myeloma, 72 hours incubation, read-out: IC50
[10] = 8226Dox40, doxorubicin resistance, 72 hours incubation, read-out: IC50
[11] = 8226LR5, melphalan resistance, 72 hours incubation, read-out: IC50
[12] = U937gtb, lymphoma, 72 hours incubation, read-out: IC50
[13] = U937vcr, vincristine resistance, 72 hours incubation, read-out: IC50

CCOC(=O)[C@H](Cc1ccc(O)cc1)NC(=O)[C@@H](N)Cc1ccc(N(CCCl)CCCl)cc1 [JV24, L-Helphalanyl-L-tyrosine ethyl ester hydrochloride]
IC50 (CEM/S; read-out: IC50): 50 nM | IC50 (CEM/R; read-out: IC50): 30 nM | IC50 (ACHN; read-out: IC50): 320 nM | IC50 (H69; read-out: IC50): 80 nM | IC50 (H69AR; read-out: IC50): 480 nM | IC50 (8226S; read-out: IC50): 1110 nM | IC50 (8226Dox40; read-out: IC50): 5540 nM | IC50 (8226LR5; read-out: IC50): 2500 nM | IC50 (U937gtb; read-out: IC50): 200 nM | IC50 (U937vcr; read-out: IC50): 210 nM | IC50 [1]: 1050 nM

CCOC(=O)[C@H](Cc1ccc(OC)cc1)NC(=O)[C@@H](N)Cc1ccc(N(CCCl)CCCl)cc1 [JV25, L-Melphalanyl-L-p-methoxyphenylalanine ethyl ester hydrochloride]
IC50 (CEM/S; [4]): 40 nM | IC50 (CEM/R; [5]): 20 nM | IC50 (ACHN; [6]): 200 nM | IC50 (H69; [7]): 40 nM | IC50 (H69AR; [8]): 280 nM | IC50 (8226S; [9]): 650 nM | IC50 (8226Dox40; [10]): 1200 nM | IC50 (8226LR5; [11]): 1820 nM | IC50 (U937gtb; [12]): 150 nM | IC50 (U937vcr; [13]): 160 nM | IC50 ([1]; mean over the ten cell lines): 460 nM

CCOC(=O)[C@H](Cc1ccc([N+](=O)[O-])cc1)NC(=O)[C@@H](N)Cc1ccc(N(CCCl)CCCl)cc1 [JV26, L-Malphalanyl-L-p-nitrophenylalanine ethyl ester hydrochloride]
IC50 (CEM/S; [4]): 50 nM | IC50 (CEM/R; [5]): 30 nM | IC50 (ACHN; [6]): 220 nM | IC50 (H69; [7]): 60 nM | IC50 (H69AR; [8]): 510 nM | IC50 (8226S; [9]): 1050 nM | IC50 (8226Dox40; [10]): 1730 nM | IC50 (8226LR5; [11]): 1990 nM | IC50 (U937gtb; [12]): 230 nM | IC50 (U937vcr; [13]): 260 nM | IC50 ([1]; mean over the ten cell lines): 610 nM

CCOC(=O)[C@H](Cc1ccc(N(CCCl)CCCl)cc1)NC(=O)[C@@H](N)Cc1ccc(N(CCCl)CCCl)cc1 [JV27, L-Melphalanyl-L-melphalan ethyl ester hydrochloride]
IC50 (CEM/S; [4]): 140 nM | IC50 (CEM/R; [5]): 100 nM | IC50 (ACHN; [6]): 210 nM | IC50 (H69; [7]): 290 nM | IC50 (H69AR; [8]): 1400 nM | IC50 (8226Dox40; [10]): 1580 nM | IC50 (8226LR5; [11]): 2460 nM | IC50 (U937gtb; [12]): 160 nM | IC50 (U937vcr; [13]): 260 nM | IC50 ([1]; mean over the ten cell lines): 760 nM

CCOC(=O)[C@H](Cc1ccc(N)cc1)NC(=O)[C@@H](N)Cc1ccc(N(CCCl)CCCl)cc1 [JV29, L-Me3phalariyl-L-p-aminophenylalanine ethyl ester hydrochloride]
IC50 (CEM/S; [4]): 60 nM | IC50 (CEM/R; [5]): 30 nM | IC50 (ACHN; [6]): 190 nM | IC50 (H69; [7]): 90 nM | IC50 (H69AR; [8]): 460 nM | IC50 (8226S; [9]): 900 nM | IC50 (8226Dox40; [10]): 2010 nM | IC50 (8226LR5; [11]): 2730 nM | IC50 (U937gtb; [12]): 150 nM | IC50 (U937vcr; [13]): 190 nM | IC50 ([1]; mean over the ten cell lines): 680 nM

CC[C@@]1(O)C(=O)OCc2c1cc1n(c2=O)Cc2cc3c(CN(C)C)c(O)ccc3nc2-1 [Topotecan, topotecan, reference compound]
IC50 (CEM/S; Homo sapiens, 72 h): 20 nM | IC50 (CEM/R; Homo sapiens, 72 h): 20 nM | IC50 (ACHN; Homo sapiens, ACHN, 72 h): 16300 nM | IC50 (H69; Homo sapiens, NCI-H69, 72 h): 1720 nM | IC50 (H69AR; Homo sapiens, H69AR, 72 h): 180000 nM | IC50 (8226S; Homo sapiens, 72 h): 870 nM | IC50 (8226Dox40; Homo sapiens, 72 h): 590 nM | IC50 (8226LR5; Homo sapiens, 72 h): 210 nM | IC50 (U937gtb; Homo sapiens, U-937/GTB, 72 h): 20 nM | IC50 (U937vcr; Homo sapiens, 72 h): 20 nM | IC50 ([1]; Homo sapiens): 20000 nM | IC50 (NCI-H23): 5840 nM | IC50 (U-1752): 28000 nM | IC50 (NCI-H611): 236000 nM | IC50 (NCI-H157): 4330 nM | IC50 (U-1810): 80 nM | IC50 (NCI-H125): 236000 nM | IC50 (U-1568): 115000 nM | IC50 (U1906L): 120 nM | IC50 (U1285): 170 nM | IC50 (U-1906E): 80 nM | IC50 (U1690): 920 nM

CC[C@]1(O)C[C@H]2CN(CCc3c([nH]c4ccccc34)[C@@](C(=O)OC)(c3cc4c(cc3OC)N(C=O)[C@H]3[C@@](O)(C(=O)OC)[C@H](OC(C)=O)[C@]5(CC)C=CCN6CC[C@]43[C@@H]65)C2)C1 [Vincristine, vincristine, reference compound]
IC50 (CEM/S; Homo sapiens, 72 h): 80 nM | IC50 (CEM/R; Homo sapiens, 72 h): 10 nM | IC50 (ACHN; Homo sapiens, ACHN, 72 h): 109000 nM | IC50 (H69; Homo sapiens, NCI-H69, 72 h): 69800 nM | IC50 (H69AR; Homo sapiens, H69AR, 72 h): 121000 nM | IC50 (8226S; Homo sapiens, 72 h): 10 nM | IC50 (8226Dox40; Homo sapiens, 72 h): 900 nM | IC50 (8226LR5; Homo sapiens, 72 h): 80 nM | IC50 (U937gtb; Homo sapiens, U-937/GTB, 72 h): 10 nM | IC50 (U937vcr; Homo sapiens, 72 h): 80 nM | IC50 ([1]; Homo sapiens): 30100 nM | viability at 3 µM [2]: 39% | viability at 3 µM [3]: 93%

CCC1=C[C@@H]2CN(C1)Cc1c([nH]c3ccccc13)[C@@](C(=O)OC)(c1cc3c(cc1OC)N(C)[C@H]1[C@@](O)(C(=O)OC)[C@H](OC(C)=O)[C@]4(CC)C=CCN5CC[C@]31[C@@H]54)C2 [Vinorelbine, vinorelbine]
viability at 3.1 µM [2]: 50% | viability at 3.1 µM [3]: 73%
